Read-outs that look alike come from different tables or passages of the source. Values belong to the compound of their own block, whether it stands above or below them.
How the values were obtained:
[1] = Experimental: (§1) The procedure for identifying microsomal metabolites is as follows:
(§2) The compounds (test compounds and their numbers are shown below, among which compounds A1 and B1 are prepared by referring to the relevant method disclosed in CN110396087A) were weighed and dissolved into dimethyl sulfoxide to prepare a 20 mM solution. The compound stock solution was diluted with 50% acetonitrile in water (v/v) to a concentration of 1.0 mM as a working solution. Liver microsomes (20 mg/mL) were diluted to 1.27 mg/mL with 50 mM dipotassium hydrogen phosphate buffer as a liver microsome working solution. Reduced coenzyme was weighed and dissolved in 3307 μL of phosphate buffer (50 mM) to 5.0 mM as a reduced coenzyme working solution. For T=60 minutes samples, 4 μL of test working solution (1.0 mM) was added, followed by 316 μL of liver microsome working solution (1.27 mg/mL), and finally, 80 μL of reduced coenzyme working solution was added to start the reaction. For T=0 minutes samples, 316 μL of liver microsome working solution (1.27 mg/mL) was added and then 80 μL of reduced coenzyme working solution was added to start the reaction, without test solution incubation. After incubation at 37° C. for 60 minutes, 1200 μL of stop solution was added to stop the enzyme reaction. For T=0 minute samples, 4 μL of test working solution (1.0 mM) was added. The sample plate was placed on a vortexer and vortexed at 600 rpm for 5 minutes. Then, the sample plate was centrifuged at 4000 rpm for 10 minutes. The supernatant was removed, mixed, and dried at room temperature with nitrogen. The residue dried with nitrogen was redissolved in 300 μL of 10% acetonitrile (0.1% FA) solvent and then centrifuged at 4000 rpm for 15 minutes. The supernatant was transferred to a detection plate for mass spectrometry. Mass spectrometry was performed using LC/Q-Exactive plus.
(§3) 7-Ethoxycoumarin (10 μM) was selected as a positive control compound and operated in parallel with the compounds.

[2] = remark: listed apart in the source
Experimental: as §1, §2, §3

[3] = remark: listed apart in the source
Experimental: as §1, §2, §3

[4] = remark: listed apart in the source
Experimental: as §1, §2, §3

[5] = remark: listed apart in the source
Experimental: as §1, §2, §3

[6] = in vivo; conditions: male, cynomolgus monkey
Experimental: Three male Cynomolgus macaques were administrated a single dose via intravenous injection (iv, 1 mg/kg, n=3), followed by oral administration (po, 10 mg/kg, n=3) after washing out for one week. Intravenous injection was performed by formulating the compounds into 1.0 mg/mL solutions using water or 10% DMSO/30% PEG400/water and administering it at a volume of 1 mL/kg. Oral administration was performed by formulating the compounds into 2.0 mg/mL solutions or suspensions using water or 0.5% methylcellulose/1.7 meq 1N hydrochloric acid and administering it at a volume of 5 mL/kg.
The pharmacokinetic parameters of the compounds were calculated using the non-compartmental model.

[7] = in vivo; conditions: male, Sprague Dawley, rat
Experimental: Six male Sprague Dawley rats were administrated a single dose via intravenous injection (iv, n=3) and oral administration (po, n=3), respectively. Intravenous injection was performed by formulating the compounds into 0.25 mg/ml or 0.5 mg/mL solutions using 10% DMSO/30% PEG400/60% water and administering it at a volume of 2 mL/kg. Oral administration was performed by formulating the compounds into 0.6 mg/ml or 2.0 mg/mL homogeneous suspensions using 0.5% methylcellulose and administering it at a volume of 5 mL/kg.
The pharmacokinetic parameters of the compounds were calculated using the WinNolin non-compartmental model.

[8] = Solid state stability of the free base crystalline form A (HPLC); assay type: physicochemical; conditions: closed placement at 60° C. for 1 day

remaining percentage of the parent cores after 60 min ([1]; cynomolgus macaque, microsomes, 1 h, 10 µM): 0.36%
remaining percentage of the parent cores after 60 min ([2]; human, microsomes, 1 h, 10 µM): 43.84%
remaining percentage of the parent cores after 60 min ([3]; rat, microsomes, 1 h, 10 µM): 2.44%
remaining percentage of the parent cores after 60 min ([4]; mouse, microsomes, 1 h, 10 µM): 1.13%
remaining percentage of the parent cores after 60 min ([5]; beagle, dog, microsomes, 1 h, 10 µM): 0.17%
bioavailability [6]: 4.61%
AUC(0-t) ([6]; iv, 1 mg/kg): 881 ng·h/mL
clearance ([6]; iv, 1 mg/kg): 18.9 mL/min/kg
AUC(0-t) ([6]; po, 10 mg/kg): 388 ng·h/mL
AUC(0-t) ([7]; iv, 1 mg/kg): 116 ng·h/mL
clearance ([7]; iv, 1 mg/kg): 129 mL/min/kg
AUC(0-t) ([7]; po, 10 mg/kg): 79.8 ng·h/mL
bioavailability ([7]; po, 10 mg/kg): 6.84%
SMILES: CN1CCC(n2cc(-c3cnc(N)c(OCc4cccc(C#CC(C)(C)O)c4)c3)cn2)CC1 [Compound A1, reference compound]

SMILES: [2H]C([2H])([2H])N1CCC(n2cc(-c3cnc(N)c(OCc4cccc(C#CC(C)(C)O)c4)c3)cn2)CC1 [Compound A2 free base crystalline form A, 4-(3-(((2-amino-5-(1-(1-trideuteriomethylpiperidin-4-yl)-1H-pyrazol-4-yl)pyridin-3-yl)oxy)methyl)phenyl)-2-methylbut-3-yn-2-ol]
HPLC Area (%) 60° C./1 day, peak 1 ([8]; RRT 0.95, starting sample 0.42): 0.41%
HPLC Area (%) 60° C./1 day, peak 2 ([8]; RRT 1.00 (main peak), starting sample 99.26): 99.33%
HPLC Area (%) 60° C./1 day, peak 3 ([8]; RRT 1.05, starting sample 0.22): 0.17%
HPLC Area (%) 60° C./1 day, peak 4 ([8]; RRT 1.06, starting sample 0.10): 0.09%

SMILES: CN1CCC(c2ncc(-c3cnc(N)c(OCc4cccc(C#CC(C)(C)O)c4)c3)s2)CC1 [Compound B1, reference compound]
remaining percentage of the parent cores after 60 min [1]: 9.11%
remaining percentage of the parent cores after 60 min [2]: 51.82%
remaining percentage of the parent cores after 60 min [3]: 11.21%
remaining percentage of the parent cores after 60 min [4]: 1.24%
remaining percentage of the parent cores after 60 min [5]: 0.12%

SMILES: [2H]C([2H])([2H])N1CCC(c2ncc(-c3cnc(N)c(OCc4cccc(C#CC(C)(C)O)c4)c3)s2)CC1 [Compound B2]
remaining percentage of the parent cores after 60 min [1]: 23.4%
remaining percentage of the parent cores after 60 min [2]: 70.4%
remaining percentage of the parent cores after 60 min [3]: 43.9%
remaining percentage of the parent cores after 60 min [4]: 42.8%
remaining percentage of the parent cores after 60 min [5]: 8.9%

AUC(0-t) ([7]; iv, 0.3 mg/kg): 28.7 ng·h/mL
clearance ([7]; iv, 0.3 mg/kg): 151 mL/min/kg
AUC(0-t) ([7]; po, 2 mg/kg): 9.94 ng·h/mL
bioavailability ([7]; po, 2 mg/kg): 5.2%
SMILES: [2H]C([2H])([2H])C(O)(C#Cc1cccc(COc2cc(-c3cnn(C4CCN(C)CC4)c3)cnc2N)c1)C([2H])([2H])[2H] [D]

AUC(0-t) ([7]; iv, 0.5 mg/kg): 74.8 ng·h/mL
clearance ([7]; iv, 0.5 mg/kg): 101 mL/min/kg
AUC(0-t) ([7]; po, 3 mg/kg): 42.8 ng·h/mL
bioavailability ([7]; po, 3 mg/kg): 9.52%
SMILES: [2H]C([2H])(Oc1cc(-c2cnn(C3CCN(C)CC3)c2)cnc1N)c1cccc(C#CC(C)(C)O)c1 [C]
